The values that follow come from ChEMBL document CHEMBL5579812, “"PROTAC" modified dihydroquinolizinones (DHQs) that cause degradation of PAPD-5 and inhibition of hepatitis A virus and hepatitis B virus, in vitro” (Bioorg Med Chem Lett, 2024).

In general, IC50 refers to the concentration that inhibits the measured activity by half. Read a high IC50 as weaker potency. For orientation: CC50 means the concentration at which the toxic effect on the cells reaches its halfway point.

The subject of data set [1] is Huh-7.5. Description: Effect on PAPD7 expression in human Huh7.5 cells at 250 nM incubated for 24 hrs by Western blot analysis. In kind it is functional, cell-based. A general note: In western blotting, separated proteins are transferred to a membrane and probed.
In data set [2] the test system is Huh-7.5. Description: Effect on PAPD5 expression in human Huh7.5 cells at 250 nM incubated for 24 hrs by Western blot analysis. The class given is functional, cell-based.
Data set [3] concerns Huh-7.5. Put plainly: Effect on actin expression in human Huh7.5 cells at 1 uM incubated for 24 hrs by Western blot analysis. The class given is functional, cell-based.
A short description of data set [4]: Inhibition HBsAg secretion in human HepG2.2.15 cells treated for 3 days followed by medium replacement without compound measured after 2 days by CLIA. In kind it is functional, cell-based. As to conditions: HepG2 2.2.15.
Data set [5] concerns Huh-7.5. Put plainly: Effect on PAPD5 expression in human Huh7.5 cells at 1 uM incubated for 24 hrs by Western blot analysis. In kind it is functional, cell-based.
Data set [6] concerns HepG2.2.15. Description: Inhibition of 2.1 to 3.5 kb HBV mRNA accumulation in human HepG2.2.15 cells at 1 to 2 nM treated for 5 days by northern blot analysis. The class given is functional, cell-based. Conditions: Hepatitis B virus, dose 1-2 nM, time 5.0 day.
In data set [7] the test system is Huh-7.5. Description: Effect on PAPD7 expression in human Huh7.5 cells at 1 uM incubated for 24 hrs by Western blot analysis. In kind it is functional, cell-based.
Data set [8] concerns Huh-7.5. Description: Effect on PAPD7 expression in human Huh7.5 cells at 10 uM incubated for 24 hrs by Western blot analysis. In kind it is functional, cell-based.
Data set [9] has as its target T1, Protein cereblon/Terminal nucleotidyltransferase 4B (Homo sapiens) (UniProt Q96SW2+Q8NDF8). Put plainly: PROTAC activity at CRBN/PAPD5 in human Huh7.5 cells assessed as protein degradation at 10 uM incubated for 24 hrs by Western blot analysis. In kind it is cell-based.
The nature of data set [10]: Cytotoxicity against human Huh-7 cells assessed as cell viability by Cell Titer Glo assay. The class given is toxicity, cell-based. (In general: In ATP-based viability assays light output follows the ATP content of the culture.)
A short description of data set [11]: Cytotoxicity against human Huh7.5 cells. The class given is toxicity, cell-based, Huh-7.5.
Data set [12] has as its system HepG2.2.15. Put plainly: Inhibition of 2.1 to 3.5 kb HBV mRNA accumulation in human HepG2.2.15 cells at 7.5 to 15 uM treated for 5 days by northern blot analysis. In kind it is functional, cell-based. As to conditions: Hepatitis B virus, dose 7.5-15 µM, time 5.0 day.
The subject of data set [13] is Huh-7.5. Put plainly: Effect on actin expression in human Huh7.5 cells at 10 uM incubated for 24 hrs by Western blot analysis. In kind it is functional, cell-based.
Data set [14] in a line: Inhibition HBsAg secretion in human Huh-7 cells harboring pHBV1.3 treated for 2 days followed by replacement of medium containing compound measured after 4 days by CLIA. In kind it is functional, cell-based.
For data set [15], the system named is Hepatovirus A. Description: Inhibition of replication of Hepatitis A virus expressing 18f-NLuc infected in human Huh7.5 cells treated for 48 hrs by luminescence based analysis. In kind it is functional, organism-based. As to conditions: for IC50: Huh7.5, 48 h.
For data set [16], the target named is T1, Protein cereblon/Terminal nucleotidyltransferase 4B (Homo sapiens). Put plainly: PROTAC activity at CRBN/PAPD5 in human Huh7.5 cells assessed as protein degradation at 10 uM incubated for 24 hrs in presence of epoxomicin by Western blot analysis. In kind it is cell-based.

The structures appear in SMILES notation. Activity calls are given as the source filed them. The rule behind the calls is not given here.

T1 sequence (Q8NDF8 whole entry, looked up): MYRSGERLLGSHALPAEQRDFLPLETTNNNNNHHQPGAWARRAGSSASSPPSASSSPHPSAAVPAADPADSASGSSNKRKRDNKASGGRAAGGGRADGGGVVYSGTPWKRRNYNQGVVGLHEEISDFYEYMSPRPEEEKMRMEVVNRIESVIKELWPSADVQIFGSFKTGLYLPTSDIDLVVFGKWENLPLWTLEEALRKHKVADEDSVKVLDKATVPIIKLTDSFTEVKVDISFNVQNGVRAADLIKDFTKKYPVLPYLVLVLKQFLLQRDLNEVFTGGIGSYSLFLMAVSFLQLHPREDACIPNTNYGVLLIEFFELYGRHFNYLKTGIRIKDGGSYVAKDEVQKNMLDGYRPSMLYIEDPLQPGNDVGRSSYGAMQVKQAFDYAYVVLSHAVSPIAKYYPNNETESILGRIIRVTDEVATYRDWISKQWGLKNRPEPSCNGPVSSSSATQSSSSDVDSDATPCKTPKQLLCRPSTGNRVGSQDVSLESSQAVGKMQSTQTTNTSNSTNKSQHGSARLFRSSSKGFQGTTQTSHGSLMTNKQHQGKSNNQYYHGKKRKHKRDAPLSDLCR
T1 sequence (Q96SW2 whole entry, looked up): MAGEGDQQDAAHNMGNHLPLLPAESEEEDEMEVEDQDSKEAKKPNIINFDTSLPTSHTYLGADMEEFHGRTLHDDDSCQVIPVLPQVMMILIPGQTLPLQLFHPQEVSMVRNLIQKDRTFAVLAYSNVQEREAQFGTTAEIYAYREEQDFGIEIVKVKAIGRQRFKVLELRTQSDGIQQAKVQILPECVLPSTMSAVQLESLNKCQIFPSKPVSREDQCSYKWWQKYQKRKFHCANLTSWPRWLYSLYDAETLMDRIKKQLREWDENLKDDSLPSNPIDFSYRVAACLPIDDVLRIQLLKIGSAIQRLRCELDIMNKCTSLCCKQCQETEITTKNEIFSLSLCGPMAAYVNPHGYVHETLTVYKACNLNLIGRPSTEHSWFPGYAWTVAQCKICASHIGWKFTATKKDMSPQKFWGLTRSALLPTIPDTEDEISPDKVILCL

Take `CC[C@H](C)[C@H](NC(=O)[C@H]([C@@H](C)CC)N(C)C(C)=O)C(=O)N[C@H](C(=O)N[C@@H](CC(C)C)C(=O)[C@@]1(C)CO1)[C@@H](C)O`: the result in data set [1] and in [2] was inactive.

Turning to `COCCCOc1cc2c(cc1OC)-c1cc(=O)c(C(=O)O)cn1[C@H](C(C)C)C2`, the result in [3], in data set [5] and in data set [7] was inactive. This molecule also returned an IC50 in data set [4] of 0.001 µM. Also, the inhibition result in data set [6] was “Active”.

In the case of `COc1cc2c(cc1OCCCNC(=O)CCOCCOCCOCCOCCOCCOCCNc1cccc3c1C(=O)N(C1CCC(=O)NC1=O)C3=O)C[C@@H](C(C)C)n1cc(C(=O)O)c(=O)cc1-2` (some centres not stated), the outcome in data set [8], in [13] and in data set [16] was inactive. For the same molecule, the result in data set [9] was Active. Further, the CC50 in [10] and in [11] was more than 50 µM each time. Also, the inhibition result in data set [12] is “Active”. Further, the IC50 in data set [4] turned out to be 16.2 µM; in [14], 10.6 µM; in data set [15], 0.277 µM. In addition, in data set [15], the inhibition entry is “Dose-Dependent Effect”.

The molecule `COc1cc2c(cc1OCCCNC(=O)CCOCCOCCOCCNc1cccc3c1C(=O)N(C1CCC(=O)NC1=O)C3=O)C[C@@H](C(C)C)n1cc(C(=O)O)c(=O)cc1-2` (some centres not stated) registered a CC50 in data set [11] of more than 50 µM. The inhibition entry in data set [12] is “Active”. In data set [15], the inhibition result was “Dose-Dependent Effect” and 0.576 µM corresponded to half-maximal inhibition (IC50).
